Here are results for 21 compounds from patent US8258176B2, “Dithiolopyrrolone compounds, the preparation and the use thereof” (Shanghai Institute of Pharmaceutical Industry, priority 2007, dated 2012).

For this test, the system named is peripheral blood leukocytes of normal mice. The experiment in a line: Effects on peripheral blood leukocytes of normal mice (peripheral blood routine test). Format: in vivo. The note with it: G-CSF 22.5 ug/kg sc once a day. The text has this:
Animal hematology analyzer, model: HEMAVET950 • 2. Method
The mice were divided into blank control group, positive control group and the dithiolopyrrolone series of compounds group, there are 10 mice in each group.

Setting [1] is: day 0 (before administration), compounds 20 mg/kg ig once a day.
[2] abbreviates: day 3, compounds 20 mg/kg ig once a day.
The mark [3] stands for this setting: day 5, compounds 20 mg/kg ig once a day.

With `COc1ccc(-n2c3cssc-3c(NC(=O)OCC(C)C)c2=O)c(OC)c1` [compound 002], the “NE % (percentage of neutrophils in the total number of white blood cells)” value runs as follows: under setting [1], 20.11%; under setting [2], 52.13%; under setting [3], 68.69%. The WBC count stood at 8.12e+09 L⁻¹ under setting [1], 1.189e+10 L⁻¹ under setting [2] and 1.678e+10 L⁻¹ under setting [3].

`COc1ccc(-n2c3cssc-3c(NC(=O)OCc3ccccc3)c2=O)c(OC)c1` [compound 003]: the “NE % (percentage of neutrophils in the total number of white blood cells)” value under setting [1] is 32.51%, the “NE % (percentage of neutrophils in the total number of white blood cells)” value under setting [2] came out at 54.34% and the “NE % (percentage of neutrophils in the total number of white blood cells)” value under setting [3] is reported as 68.30%. This compound also showed a WBC count under setting [1] of 7.84e+09 L⁻¹, a WBC count under setting [2] of 1.456e+10 L⁻¹ and a WBC count under setting [3] of 1.744e+10 L⁻¹.

With `COC(=O)Nc1c2sscc-2n(-c2ccc(OC)cc2OC)c1=O` [compound 005], the “NE % (percentage of neutrophils in the total number of white blood cells)” value reads like this: under setting [1], 26.46%; under setting [2], 35.55%; under setting [3], 46.65%. The WBC count was determined as 8.08e+09 L⁻¹ under setting [1], 8.76e+09 L⁻¹ under setting [2] and 8.64e+09 L⁻¹ under setting [3].

`COc1ccc(-n2c3cssc-3c(NC(=O)OC(C)C)c2=O)c(OC)c1` [compound 007]: the “NE % (percentage of neutrophils in the total number of white blood cells)” value is, setting by setting: under setting [1], 23.31%; under setting [2], 48.67%; under setting [3], 52.02%. Also, the WBC count was found to be 8.11e+09 L⁻¹ under setting [1], 1.188e+10 L⁻¹ under setting [2] and 1.222e+10 L⁻¹ under setting [3].

Regarding `C=CCOC(=O)Nc1c2sscc-2n(-c2ccc(OC)cc2OC)c1=O` [compound 008], the “NE % (percentage of neutrophils in the total number of white blood cells)” value is 31.56% under setting [1], 60.03% under setting [2] and 65.55% under setting [3]. The compound further displayed a WBC count under setting [1] of 8.88e+09 L⁻¹, a WBC count under setting [2] of 1.779e+10 L⁻¹ and a WBC count under setting [3] of 1.876e+10 L⁻¹.

`CCCOC(=O)Nc1c2sscc-2n(-c2ccc(OC)cc2OC)c1=O` [compound 009]: the “NE % (percentage of neutrophils in the total number of white blood cells)” value reads like this: under setting [1], 23.62%; under setting [2], 27.46%; under setting [3], 47.78%. The WBC count came out at 9.01e+09 L⁻¹ under setting [1], 1.39e+10 L⁻¹ under setting [2] and 1.421e+10 L⁻¹ under setting [3].

As to `COc1ccc(OC(=O)Nc2c3sscc-3n(-c3ccc(OC)cc3OC)c2=O)cc1` [compound 010], the “NE % (percentage of neutrophils in the total number of white blood cells)” value under setting [1] is 20.86%, the “NE % (percentage of neutrophils in the total number of white blood cells)” value under setting [2] amounted to 24.34% and the “NE % (percentage of neutrophils in the total number of white blood cells)” value under setting [3] stood at 32.34%. Moreover, the WBC count worked out at 8.87e+09 L⁻¹ under setting [1], 1.018e+10 L⁻¹ under setting [2] and 1.023e+10 L⁻¹ under setting [3].

For the compound `CCCCCOC(=O)Nc1c2sscc-2n(-c2ccc(OC)cc2OC)c1=O` [compound 011], the “NE % (percentage of neutrophils in the total number of white blood cells)” value reads like this: under setting [1], 27.68%; under setting [2], 46.65%; under setting [3], 51.87%. Also, the WBC count reads like this: under setting [1], 8.76e+09 L⁻¹; under setting [2], 1.146e+10 L⁻¹; under setting [3], 1.188e+10 L⁻¹.

Regarding `COc1ccc(-n2c3cssc-3c(NC(=O)OCC3CCCO3)c2=O)c(OC)c1` (stereo not drawn) [compound 012], the “NE % (percentage of neutrophils in the total number of white blood cells)” value is, setting by setting: under setting [1], 34.02%; under setting [2], 38.98%; under setting [3], 49.07%. In addition, the WBC count by setting is: under setting [1], 9.03e+09 L⁻¹; under setting [2], 1.146e+10 L⁻¹; under setting [3], 1.201e+10 L⁻¹.

Take `CCCCOC(=O)Nc1c2sscc-2n(-c2ccc(OC)cc2OC)c1=O` [compound 013]: the “NE % (percentage of neutrophils in the total number of white blood cells)” value under setting [1] is 25.6%, the “NE % (percentage of neutrophils in the total number of white blood cells)” value under setting [2] was 48.76% and the “NE % (percentage of neutrophils in the total number of white blood cells)” value under setting [3] turned out to be 52.84%. Further, the WBC count reads like this: under setting [1], 6.36e+09 L⁻¹; under setting [2], 1.269e+10 L⁻¹; under setting [3], 1.329e+10 L⁻¹.

`COc1ccc(-n2c3cssc-3c(NC(=O)OC3CCCC3)c2=O)c(OC)c1` [compound 014]: the “NE % (percentage of neutrophils in the total number of white blood cells)” value was determined as 20.81% under setting [1], 23.39% under setting [2] and 40.40% under setting [3]. The WBC count under setting [1] was 6.78e+09 L⁻¹, the WBC count under setting [2] was found to be 1.156e+10 L⁻¹ and the WBC count under setting [3] worked out at 1.201e+10 L⁻¹.

For the compound `CCCCCCCOC(=O)Nc1c2sscc-2n(-c2ccc(OC)cc2OC)c1=O` [compound 015], the “NE % (percentage of neutrophils in the total number of white blood cells)” value reads like this: under setting [1], 20.76%; under setting [2], 25.65%; under setting [3], 38.87%. The WBC count reads like this: under setting [1], 7.46e+09 L⁻¹; under setting [2], 1.156e+10 L⁻¹; under setting [3], 1.334e+10 L⁻¹.

On to `COc1ccc(-n2c3cssc-3c(NC(=O)OCCCl)c2=O)c(OC)c1` [compound 016], for which the “NE % (percentage of neutrophils in the total number of white blood cells)” value was determined as 18.79% under setting [1], 40.47% under setting [2] and 45.76% under setting [3]. Further, the WBC count by setting is: under setting [1], 7.34e+09 L⁻¹; under setting [2], 1.047e+10 L⁻¹; under setting [3], 1.156e+10 L⁻¹.

Take `COc1ccc(-n2c3cssc-3c(NC(=O)Oc3ccc(Cl)cc3)c2=O)c(OC)c1` [compound 017]: the “NE % (percentage of neutrophils in the total number of white blood cells)” value by setting is: under setting [1], 23.24%; under setting [2], 28.88%; under setting [3], 36.90%. The WBC count runs as follows: under setting [1], 6.36e+09 L⁻¹; under setting [2], 8.67e+09 L⁻¹; under setting [3], 8.88e+09 L⁻¹.

As to `COc1ccc(-n2c3cssc-3c(NC(=O)Oc3ccc(C)cc3)c2=O)c(OC)c1` [compound 018], the “NE % (percentage of neutrophils in the total number of white blood cells)” value under setting [1] stood at 21.74%, the “NE % (percentage of neutrophils in the total number of white blood cells)” value under setting [2] turned out to be 23.38% and the “NE % (percentage of neutrophils in the total number of white blood cells)” value under setting [3] worked out at 26.04%. The WBC count amounted to 6.15e+09 L⁻¹ under setting [1], 8.59e+09 L⁻¹ under setting [2] and 9.03e+09 L⁻¹ under setting [3].

Turning to `COc1ccc(-n2c3cssc-3c(NC(=O)OCc3ccco3)c2=O)c(OC)c1` [compound 019], the “NE % (percentage of neutrophils in the total number of white blood cells)” value is listed as 24.36% under setting [1], 28.89% under setting [2] and 29.84% under setting [3]. The WBC count by setting is: under setting [1], 6.88e+09 L⁻¹; under setting [2], 9.35e+09 L⁻¹; under setting [3], 1.087e+10 L⁻¹.

Take `COc1ccc(-n2c3cssc-3c(NC(=O)OC(C)c3ccccc3)c2=O)c(OC)c1` (stereo not drawn) [compound 020]: the “NE % (percentage of neutrophils in the total number of white blood cells)” value under setting [1] is on record as 30.03%, the “NE % (percentage of neutrophils in the total number of white blood cells)” value under setting [2] is 38.66% and the “NE % (percentage of neutrophils in the total number of white blood cells)” value under setting [3] is given as 42.49%. Also, the WBC count runs as follows: under setting [1], 5.09e+09 L⁻¹; under setting [2], 9.61e+09 L⁻¹; under setting [3], 1.122e+10 L⁻¹.

In the case of `COc1ccc(-n2c3cssc-3c(NC(=O)OCc3cccs3)c2=O)c(OC)c1` [compound 021], the “NE % (percentage of neutrophils in the total number of white blood cells)” value by setting is: under setting [1], 29.78%; under setting [2], 36.52%; under setting [3], 49.65%. The same compound gave a WBC count under setting [1] of 5.22e+09 L⁻¹, a WBC count under setting [2] of 9.93e+09 L⁻¹ and a WBC count under setting [3] of 1.122e+10 L⁻¹.

Turning to `COc1ccc(-n2c3cssc-3c(NC(=O)Oc3cccnc3)c2=O)c(OC)c1` [compound 022], the “NE % (percentage of neutrophils in the total number of white blood cells)” value is on record as 31.23% under setting [1], 38.98% under setting [2] and 47.74% under setting [3]. Moreover, the WBC count by setting is: under setting [1], 6.86e+09 L⁻¹; under setting [2], 1.003e+10 L⁻¹; under setting [3], 1.211e+10 L⁻¹.

On to `COc1ccc(-n2c3cssc-3c(NC(=O)N3CCOCC3)c2=O)c(OC)c1` [compound 023], for which the “NE % (percentage of neutrophils in the total number of white blood cells)” value is, setting by setting: under setting [1], 26.86%; under setting [2], 56.66%; under setting [3], 77.31%. Further, the WBC count by setting is: under setting [1], 7.86e+09 L⁻¹; under setting [2], 2.234e+10 L⁻¹; under setting [3], 2.998e+10 L⁻¹.

Take `COc1ccc(-n2c3cssc-3c(NC(=O)NCc3ccccc3)c2=O)c(OC)c1` [compound 024]: the “NE % (percentage of neutrophils in the total number of white blood cells)” value by setting is: under setting [1], 24.67%; under setting [2], 33.98%; under setting [3], 42.02%. The WBC count reads like this: under setting [1], 7.95e+09 L⁻¹; under setting [2], 8.76e+09 L⁻¹; under setting [3], 9.71e+09 L⁻¹.
